Data taken from patent US20150342960A1, “DRUG COMBINATIONS FOR TREATMENT OF MELANOMA AND OTHER CANCERS” (Memorial Sloan Kettering Cancer Center, priority 2014, published 2015).
Read-outs that look alike come from different tables or passages of the source.

Assays:
Assay type in all cases: cell-based
c-Myc [1] = test: c-Myc level by reverse phase protein arrays (RPPA); conditions: Skmel133 cells, average of three replicates
Experimental: Proteomic response profiles to perturbations were measured using reverse phase protein arrays. The cells were lysed 24 hours after drug treatment. Three biological replicates were spotted for each sample (e.g., drug condition) on RPPA slides. Each slide was stained with the respective Ab and 138 proteomic entities (total or phosho levels) and were profiled using specific Abs with the RPPA (Table 3).
FIG. 14 depicts changes in c-Myc levels in response to perturbations in Skmel133 cells as measured in RPPA experiments. Each data point was log normalized with respect to the c-Myc level in unperturbed condition. c-Myc level was highest in the presence of CDK4i. Various drug combinations that included STAT3 and mTOR inhibitors follow CDK4i combinations. cMyc level was lowest when cells were perturbed with MEK, BRAF, SRC, PKC and HDAC inhibitors, respectively. Each data-point is the average of RPPA readouts from three replicates.

S6pS240 = test: Western blot IC40 of downstream effector readout; conditions: 40% inhibition of S6pS240, Western Blot
Experimental: (§1) In total, cells were treated with 89 unique perturbations (Table 3). In paired combinations, each drug concentration was selected to inhibit the readout for the presumed target or the downstream effectors by 40% (IC40) as determined by Western Blot experiments. In single agent perturbations, each drug is applied at two different concentrations, IC40 and 2×IC40.

SkMel133 cells [2] = test: Cell viability, resazurin assay; conditions: for Emax: read-out: maximal effect level (Amax, response to the drugs at highest doses)
Experimental: RAFi resistant melanoma cell line SkMel133 was used in all perturbation experiments. SkMel133 cells were perturbed with 12 targeted drugs applied as single agents or in paired combinations.
All phenotypic measurements were made in perturbation conditions identical to those in proteomic measurements. Cell viability and cell cycle progression were measured 72 hours after drug treatment using the Resazurin assay and flow cytometry analysis respectively. The percentage of cells in the G1, G2/M, and S phases and sub-G1 fraction were recorded based on the respective distribution of DNA content in each phase.

SkMel133 cells [3] = test: Cell cycle progression, flow cytometry; conditions: for cells in G1 stage: 24 hours after treatment, 39% when not treated
Experimental: All phenotypic measurements were made in perturbation conditions identical to those in proteomic measurements. […] The percentage of cells in the G1, G2/M, and S phases and sub-G1 fraction were recorded based on the respective distribution of DNA content in each phase.

MAPK1pT202 = test: Western blot IC40 of downstream effector readout; conditions: 40% inhibition of MAPK1pT202, Western Blot
Experimental: as §1

AKTpS473 = test: Western blot IC40 of downstream effector readout; conditions: 40% inhibition of AKTpS473, Western Blot
Experimental: as §1

SkMel133 cells [4] = test: Apoptotic response of melanoma cells; conditions: 48 hours after treatment; 3% in unperturbed cells
Experimental: Finally, the cell cycle progression and apoptotic response of melanoma cells to JQ1 were measured. JQ1 (500 nM) induces a 50% increase in cells at G1-phase compared to the unperturbed cells (FIG. 8). […] More specifically, FIG. 8 depicts cell cycle arrest response of melanoma cells to JQ1 and MEKi combination. 51% and 88% of cells are in G1 stage 24 hours after JQ1 and MEKi treatment, respectively. JQ1+MEKi combination has an increased effect on G1 cell cycle arrest (G1=92%). 39% of cells are in G1 when they are not treated with drugs (error bars in right panel: ±SE in 3 biological replicates).

c-Myc [5] = test: Western blot of c-Myc expression; conditions: SkMel133, western blot, 24 hours after drug treatment
Description: First, it was postulated whether c-Myc levels in SkMel133 cells could be targeted using JQ1. […] Therefore, total c-Myc levels are targeted using JQ1, either as a single agent or in combination with inhibitors of the RAF/MEK/ERK pathway.

BRD4 = test: Western blot of BRD4 level; conditions: 24 hours after JQ1 treatment
Experimental: FIGS. 6A-6E illustrate the combined targeting of c-Myc with MEK and BRAF leads to synergistic response in melanoma cells. […] The leftward shift of isocurves implies synergistic interactions between the applied perturbations. u denotes strength of in silico perturbations. […] The BRD4 level is unchanged in response to JQ1 treatment. […] C-Myc expression is targeted with BRD4 inhibitor, JQ1. […] Cell viability is measured using the resazurin assay. […] The combination index (CI) calculated using the drug dose response curves quantifies the drug interactions between JQ1, MEKi and RAFi (left panel). CI for a given level of inhibition is a measure of the fractional shift between the combination doses (C1 and C2) and the single agent's inhibitory concentration (Cx,1, Cx,2). It is formulated as CI=(C1/Cx,1)[…](C2/Cx,2). Amax is the response of melanoma cells to JQ1, MEKi and RAFi at highest doses applied (right panel). 1-Amax is the fraction of cells alive in response to highest drug dose normalized with respect to the non-drug treated condition. […] 86% of cells are in G1 state 48 hours after JQ1 treatment, while 42% of the cells are in G1 state before drug treatment (error bars: ±SEM in 3 biological replicates).

4EBP1pS65 = test: Western blot IC40 of downstream effector readout; conditions: 40% inhibition of 4EBP1pS65, Western Blot
Experimental: as §1

STAT3pY705 = test: Western blot IC40 of downstream effector readout; conditions: 40% inhibition of STAT3pY705, Western Blot
Experimental: as §1

GSK3pS21 = test: Western blot IC40 of downstream effector readout; conditions: 40% inhibition of GSK3pS21, Western Blot
Experimental: as §1

P27/Kip1 = test: Western blot IC40 of downstream effector readout; conditions: IC40 on P27/Kip1 readout
Experimental: as §1

[6] = SkMel133, highest doses applied, normalized to non-drug treated condition

Question: For `Cn1cc(C2=C(c3cn(CCCN)c4ccccc34)C(=O)NC2=O)c2ccccc21` [RO-31-7549], which “c-Myc level relative to unperturbed condition” value (c-Myc [1]) is on record?
Answer: lowest

Question: What about the “Dose 1 (IC40 of downstream effector readout)” value (S6pS240) of the same molecule?
Answer: 3500 nM

Question: How did the Emax (SkMel133 cells [2]; [6]) turn out when `O=C(NOC[C@H](O)CO)c1ccc(F)c(F)c1Nc1ccc(I)cc1F` [PD0325901] was run?
Answer: 13%

Question: What about the “cells in G1 stage” value (SkMel133 cells [3]) of the same molecule?
Answer: 88%

Question: What about the “c-Myc level relative to unperturbed condition” value (c-Myc [1]) of the same molecule?
Answer: lowest

Question: And the “Dose 1 (IC40 of downstream effector readout)” value (MAPK1pT202)?
Answer: 1.5 nM

Question: With `FC(F)c1nc2ccccc2n1-c1nc(N2CCOCC2)nc(N2CCOCC2)n1` [ZSTK474] as the molecule, how does the “Dose 1 (IC40 of downstream effector readout)” value (AKTpS473) read?
Answer: 600 nM

Question: `Cc1sc2c(c1C)C(c1ccc(Cl)cc1)=N[C@@H](CC(=O)OC(C)(C)C)c1nnc(C)n1-2` [JQ1] was tested. Which IC50 (SkMel133 cells [2]; SkMel133, combined with 5 nM MEK inhibitor, read-out: concentration of JQ1 reducing viability by 50%) did it give?
Answer: 100 nM

Question: And the “maximal effect level (Amax, response to the drugs at highest doses)” value (SkMel133 cells [2]; [6])?
Answer: 10%

Question: What about the IC50 (SkMel133 cells [2]; SkMel133, single agent, read-out: cell viability IC50) of the same molecule?
Answer: 200 nM

Question: What about the “cells in G1 stage” value (SkMel133 cells [3]) of the same molecule?
Answer: 51%

Question: And the “cells in G1 state” value (SkMel133 cells [3]; 48 hours after treatment, 42% before drug treatment)?
Answer: 86%

Question: What about the “increase in cells at G1-phase compared to the unperturbed cells” value (SkMel133 cells [3]; JQ1 500 nM) of the same molecule?
Answer: 50%

Question: What about the apoptosis (SkMel133 cells [4]) of the same molecule?
Answer: 11%

Question: What about the c-Myc expression (c-Myc [5]) of the same molecule?
Answer: reduced

Question: And the BRD4 level (BRD4)?
Answer: unchanged

Question: `O=c1[nH]c2ccccc2n1C1CCN(Cc2ccc(-c3nc4cc5nc[nH]c5cc4nc3-c3ccccc3)cc2)CC1` [AKTi 1/2] was tested. Which “Dose 1 (IC40 of downstream effector readout)” value (AKTpS473) did it give?
Answer: 5.000 nM

Question: `COc1ccc(C2=NC(c3ccc(Cl)cc3)C(c3ccc(Cl)cc3)N2C(=O)N2CCNC(=O)C2)c(OC(C)C)c1` (stereo not shown) [Nutlin] was tested. Which “Dose 1 (IC40 of downstream effector readout)” value (4EBP1pS65) did it give?
Answer: 3,000 nM

Question: For `CCCS(=O)(=O)Nc1ccc(F)c(C(=O)c2c[nH]c3ncc(Cl)cc23)c1F` [PLX4720], which IC50 (SkMel133 cells [2]; RAFi resistant SkMel133 cells, single agent, read-out: IC50 for single agent) is on record?
Answer: > 1000 nM

Question: What about the IC50 (SkMel133 cells [2]; SkMel133, combined with JQ1 (120 nM), read-out: concentration of RAFi reducing cell viability by 50%) of the same molecule?
Answer: 120 nM

Question: And the Emax (SkMel133 cells [2]; [6])?
Answer: 12%

Question: And the “c-Myc level relative to unperturbed condition” value (c-Myc [1])?
Answer: lowest

Question: What about the “Dose 1 (IC40 of downstream effector readout)” value (MAPK1pT202) of the same molecule?
Answer: 60 nM

Question: For `O=[N+]([O-])c1ccc2c(c1)S(=O)(=O)C=C2` [Stattic], which “Dose 1 (IC40 of downstream effector readout)” value (STAT3pY705) is on record?
Answer: 600 nM

Question: `CC(C)(C)c1nc2c3cc[nH]c(=O)c3c3cc(F)ccc3c2[nH]1` [P6] was tested. Which “Dose 1 (IC40 of downstream effector readout)” value (GSK3pS21) did it give?
Answer: 20 nM

Question: `O=C(CCCCCCSc1ccc2ccccc2c1)NO` [HNHA] was tested. Which “c-Myc level relative to unperturbed condition” value (c-Myc [1]) did it give?
Answer: lowest

Question: What about the “Dose 1 (IC40 of downstream effector readout)” value (P27/Kip1) of the same molecule?
Answer: 6,000 nM

Question: With `CO[C@H]1C[C@@H]2CC[C@@H](C)[C@@](O)(O2)C(=O)C(=O)N2CCCC[C@H]2C(=O)O[C@H]([C@H](C)C[C@@H]2CC[C@@H](OC(=O)C(C)(CO)CO)[C@H](OC)C2)CC(=O)[C@H](C)/C=C(\C)[C@@H](O)[C@@H](OC)C(=O)[C@H](C)C[C@H](C)/C=C/C=C/C=C/1C` [Temsirolimus] as the molecule, how does the “Dose 1 (IC40 of downstream effector readout)” value (S6pS240) read?
Answer: 0.3 nM
